From ChEMBL document CHEMBL3431459, “Roche carnitine palmitoyltransferase modulator screening data (supplementary data associated with the publication CHEMBL2216752)”
In brackets after ≈: the same amount, converted by molar mass.

Assays:
[1] = target: T1, Carnitine O-palmitoyltransferase 1, muscle isoform (Homo sapiens, UniProt Q92523); assay: SUPPLEMENTARY: Inhibition of Carnitine palmitoyltransferase 1, muscle isoform; parameters: species or system Muscle tissue
T1 sequence (Q92523 whole entry): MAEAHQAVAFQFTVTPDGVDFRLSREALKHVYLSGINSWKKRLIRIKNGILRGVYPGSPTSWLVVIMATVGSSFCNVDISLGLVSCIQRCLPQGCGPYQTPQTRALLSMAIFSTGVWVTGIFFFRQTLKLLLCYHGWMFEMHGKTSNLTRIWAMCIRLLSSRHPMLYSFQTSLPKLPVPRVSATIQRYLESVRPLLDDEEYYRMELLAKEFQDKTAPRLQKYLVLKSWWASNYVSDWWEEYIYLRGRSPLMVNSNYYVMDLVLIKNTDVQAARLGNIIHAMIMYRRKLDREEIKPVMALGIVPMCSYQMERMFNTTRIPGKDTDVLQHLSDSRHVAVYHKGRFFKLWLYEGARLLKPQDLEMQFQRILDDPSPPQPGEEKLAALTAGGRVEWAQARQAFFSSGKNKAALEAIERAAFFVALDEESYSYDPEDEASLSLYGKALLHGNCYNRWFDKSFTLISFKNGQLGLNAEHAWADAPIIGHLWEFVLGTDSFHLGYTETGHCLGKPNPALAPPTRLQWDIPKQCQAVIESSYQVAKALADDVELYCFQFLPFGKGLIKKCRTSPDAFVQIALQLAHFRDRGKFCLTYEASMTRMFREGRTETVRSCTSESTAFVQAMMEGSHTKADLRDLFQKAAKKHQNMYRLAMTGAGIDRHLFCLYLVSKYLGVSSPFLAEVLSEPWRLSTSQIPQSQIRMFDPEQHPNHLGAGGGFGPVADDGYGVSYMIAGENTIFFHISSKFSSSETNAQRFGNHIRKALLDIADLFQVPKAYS

[2] = target: T2, Carnitine O-palmitoyltransferase 2, mitochondrial (Rattus norvegicus, UniProt P18886); assay: (§1) SUPPLEMENTARY: Inhibition of Carnitine palmitoyltransferase 2
T2 sequence (P18886 whole entry): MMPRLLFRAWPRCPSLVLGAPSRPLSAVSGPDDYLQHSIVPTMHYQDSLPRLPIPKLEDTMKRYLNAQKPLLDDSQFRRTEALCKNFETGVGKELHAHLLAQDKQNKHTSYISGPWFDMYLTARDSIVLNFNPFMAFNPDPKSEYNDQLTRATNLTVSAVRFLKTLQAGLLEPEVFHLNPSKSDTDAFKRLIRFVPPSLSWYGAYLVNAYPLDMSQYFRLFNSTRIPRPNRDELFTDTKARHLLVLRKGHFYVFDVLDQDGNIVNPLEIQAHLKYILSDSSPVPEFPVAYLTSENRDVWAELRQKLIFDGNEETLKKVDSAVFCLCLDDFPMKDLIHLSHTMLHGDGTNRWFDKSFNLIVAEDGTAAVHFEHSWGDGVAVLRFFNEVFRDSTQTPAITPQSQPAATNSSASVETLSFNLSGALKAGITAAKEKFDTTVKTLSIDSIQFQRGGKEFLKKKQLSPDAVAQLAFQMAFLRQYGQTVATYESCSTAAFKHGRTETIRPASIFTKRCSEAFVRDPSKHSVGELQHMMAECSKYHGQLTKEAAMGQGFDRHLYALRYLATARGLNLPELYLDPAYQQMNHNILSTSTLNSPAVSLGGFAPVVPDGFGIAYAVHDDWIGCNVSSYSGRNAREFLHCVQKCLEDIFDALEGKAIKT

[3] = target: T3, Carnitine O-palmitoyltransferase 2, mitochondrial (Homo sapiens, UniProt P23786); assay: as §1
T3 sequence (P23786 whole entry): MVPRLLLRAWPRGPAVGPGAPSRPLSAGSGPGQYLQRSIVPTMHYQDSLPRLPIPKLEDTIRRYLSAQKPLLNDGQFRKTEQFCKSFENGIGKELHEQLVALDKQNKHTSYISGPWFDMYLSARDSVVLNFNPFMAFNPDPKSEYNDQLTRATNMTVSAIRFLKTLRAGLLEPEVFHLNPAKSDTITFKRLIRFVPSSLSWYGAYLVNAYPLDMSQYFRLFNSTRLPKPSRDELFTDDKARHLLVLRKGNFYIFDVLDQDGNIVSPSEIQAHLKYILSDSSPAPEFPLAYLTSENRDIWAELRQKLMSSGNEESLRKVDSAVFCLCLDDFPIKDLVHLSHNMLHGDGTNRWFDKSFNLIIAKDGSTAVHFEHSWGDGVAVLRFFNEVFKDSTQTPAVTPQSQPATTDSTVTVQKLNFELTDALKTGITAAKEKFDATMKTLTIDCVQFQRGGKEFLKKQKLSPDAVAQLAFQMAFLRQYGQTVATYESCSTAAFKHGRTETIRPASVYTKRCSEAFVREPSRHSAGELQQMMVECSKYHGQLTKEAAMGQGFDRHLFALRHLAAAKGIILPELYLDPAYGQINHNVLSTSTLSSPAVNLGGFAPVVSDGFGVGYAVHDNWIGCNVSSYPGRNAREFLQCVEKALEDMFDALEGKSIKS

[4] = SUPPLEMENTARY: Lipophilicity (log D) Determination by high-throughput shake-flask; type: physicochemical; conditions: octanol/water
[5] = target: T4, Carnitine O-palmitoyltransferase 1, liver isoform (Homo sapiens, UniProt P50416); assay: (§2) SUPPLEMENTARY: Inhibition of Carnitine palmitoyltransferase 1, liver isoform
T4 sequence (P50416 whole entry): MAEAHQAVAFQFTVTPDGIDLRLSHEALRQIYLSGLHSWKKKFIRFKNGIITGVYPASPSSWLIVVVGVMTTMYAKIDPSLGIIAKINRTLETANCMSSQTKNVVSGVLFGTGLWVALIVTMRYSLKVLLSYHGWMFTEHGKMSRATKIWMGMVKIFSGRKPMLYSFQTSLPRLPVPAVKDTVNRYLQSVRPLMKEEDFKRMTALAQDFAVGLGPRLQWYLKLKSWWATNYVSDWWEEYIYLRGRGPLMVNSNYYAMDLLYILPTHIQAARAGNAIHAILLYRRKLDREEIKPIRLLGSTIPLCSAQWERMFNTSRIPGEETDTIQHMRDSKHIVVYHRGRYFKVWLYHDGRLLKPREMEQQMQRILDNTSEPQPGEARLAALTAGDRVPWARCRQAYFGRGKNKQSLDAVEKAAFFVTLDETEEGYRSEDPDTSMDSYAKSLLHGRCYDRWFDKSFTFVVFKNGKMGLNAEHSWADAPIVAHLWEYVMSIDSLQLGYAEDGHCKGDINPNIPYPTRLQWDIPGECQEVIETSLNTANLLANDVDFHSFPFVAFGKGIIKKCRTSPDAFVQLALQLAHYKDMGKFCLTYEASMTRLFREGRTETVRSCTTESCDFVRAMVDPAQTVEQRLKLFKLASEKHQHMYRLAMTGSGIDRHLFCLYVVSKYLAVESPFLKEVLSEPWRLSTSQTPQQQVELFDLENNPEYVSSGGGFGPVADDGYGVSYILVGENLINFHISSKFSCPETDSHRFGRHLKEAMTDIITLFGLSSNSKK

[6] = target: T5, Carnitine O-palmitoyltransferase 1, liver isoform (Rattus norvegicus, UniProt P32198); assay: as §2
T5 sequence (P32198 whole entry): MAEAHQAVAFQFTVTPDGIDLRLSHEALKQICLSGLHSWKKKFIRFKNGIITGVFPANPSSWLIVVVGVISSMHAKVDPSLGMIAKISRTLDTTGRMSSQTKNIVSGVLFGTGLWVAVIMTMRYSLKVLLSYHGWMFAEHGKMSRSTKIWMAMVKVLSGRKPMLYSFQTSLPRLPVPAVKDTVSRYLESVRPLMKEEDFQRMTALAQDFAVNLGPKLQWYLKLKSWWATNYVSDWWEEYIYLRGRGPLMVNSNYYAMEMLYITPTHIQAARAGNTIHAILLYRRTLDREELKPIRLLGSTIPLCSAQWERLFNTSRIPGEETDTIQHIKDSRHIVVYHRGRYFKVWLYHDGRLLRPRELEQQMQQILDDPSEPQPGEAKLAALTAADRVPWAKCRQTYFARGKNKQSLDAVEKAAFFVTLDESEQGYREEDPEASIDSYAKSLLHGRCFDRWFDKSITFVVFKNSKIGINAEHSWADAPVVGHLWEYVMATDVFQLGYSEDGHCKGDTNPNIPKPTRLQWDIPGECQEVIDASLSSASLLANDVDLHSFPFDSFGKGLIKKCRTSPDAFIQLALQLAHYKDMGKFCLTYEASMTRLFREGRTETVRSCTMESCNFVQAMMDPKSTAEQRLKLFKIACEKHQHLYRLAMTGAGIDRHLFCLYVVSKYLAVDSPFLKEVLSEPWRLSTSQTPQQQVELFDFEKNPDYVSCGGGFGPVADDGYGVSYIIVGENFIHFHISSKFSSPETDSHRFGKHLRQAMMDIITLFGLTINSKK

[7] = SUPPLEMENTARY: Lyophilisation Solubility Assay (LYSA); type: physicochemical; conditions: read-out: Kinetic_solubility
[8] = SUPPLEMENTARY: PAMPA permeability assay; type: physicochemical; conditions: read-out: Permeability

Row | IC50 [1] [nM] | IC50 [2] [nM] | IC50 [3] [nM] | logD [4] | IC50 [5] [nM] | IC50 [6] [nM] | solubility kinetic [7] [µg/mL] | Papp [8] [×10⁻⁶ cm/s] | Compound
1 | 3560 | > 100000 | 74400 | 2.57 | 252 | 154 | 238 (≈ 408 µM) | 1.16 | COCCN(c1cc(C(=O)Nc2nc(CC(=O)O)cs2)cc2c1OCO2)S(=O)(=O)c1cc(Cl)ccc1OC
2 | 1310 | 1630 | 686 | 0.57 | 190 | 63 | 528 (≈ 986 µM) | 1.77 | COc1ccc(Cl)cc1S(=O)(=O)N1CC(C)c2ccc(C(=O)Nc3ccc(C(=O)O)c(Cl)c3)cc21 (configuration not stated)
3 | > 100000 | 42600 | 2740 | > 3 | 78.4 | 182 | 1 (≈ 2.37 µM) | 2.42 | O=C(COc1ccccc1)N1CCCC[C@@H]1c1noc(-c2ccc3snnc3c2)n1
4 | 6240 | 28100 | 10800 | 2.38 | 88.5 | 96.8 | 3 (≈ 6.06 µM) | 1.81 | COc1ccc(Cl)cc1CN1C(=O)OC(C)(C)c2ccc(C(=O)Nc3ccc(C(=O)O)cc3)cc21
5 | > 100000 | > 100000 | 19000 | 2.39 | 144 | 923 | 19 (≈ 50.1 µM) | 5.07 | Nc1cncc(-c2nc([C@H]3CCCCN3C(=O)COc3ccccc3)no2)c1
6 | 9890 | > 100000 | > 100000 | 1.27 | 213 | 171 | > 675 | 0.09 | COc1ccc(Cl)cc1S(=O)(=O)N1CCOc2ccc(C(=O)Nc3ccn(CC(=O)O)n3)cc21
7 | > 100000 | 39800 | 41800 | 1.98 | 164 | 239 | 8 (≈ 18.6 µM) | 0.261 | O=C(COc1ccccc1)N1CCCC[C@@H]1c1nc(-c2ccc(-c3cnc[nH]3)cc2)no1
8 | > 100000 | > 100000 | > 100000 | 1.63 | 132 | 9640 | 367 (≈ 907 µM) | 1.53 | O=C(COc1ccccc1)N1CCNC[C@@H]1c1nc(-c2ccc3[nH]cnc3c2)no1
9 | > 100000 | 24100 | 36700 | 3.32 | 72.1 | 692 | 29 (≈ 64.8 µM) | 2.6 | CC(C)C(=O)Nc1cccc(-c2n[nH]c([C@H]3CCCCN3C(=O)COc3ccccc3)n2)c1
10 | > 100000 | 76200 | 65700 | 2.96 | 35.6 | 330 | 56 (≈ 129 µM) | 2.89 | CCC(=O)Nc1cccc(-c2n[nH]c([C@H]3CCCCN3C(=O)COc3ccccc3)n2)c1
11 | > 100000 | 58700 | 10300 | 2.62 | 65.1 | 102 | 127 (≈ 275 µM) | 3.43 | O=C1CN(c2cccc(-c3nc([C@H]4CCCCN4C(=O)COc4ccccc4)no3)c2)C(=O)N1
12 | 4560 | 6510 | 1530 | 0.52 | 57.5 | 56.7 | 7 (≈ 13 µM) | 1.66 | COc1ccc(Cl)cc1S(=O)(=O)N1CCOc2c(F)cc(C(=O)Nc3ccc(C(=O)O)c(F)c3)cc21
13 | > 100000 | > 100000 | 22800 | 2.44 | 65.4 | 160 | 94 (≈ 200 µM) | 1.77 | CS(=O)(=O)NCc1cccc(-c2nc([C@H]3CCCCN3C(=O)COc3ccccc3)no2)c1
14 | > 100000 | > 100000 | 97900 | 1.83 | 325 | 1190 | 161 (≈ 423 µM) | 4.75 | O=C(COc1ccccc1)N1CCCC[C@@H]1c1nc(-c2ccc(=O)[nH]c2)no1
